For 5 compounds, MIC results are on record in ChEMBL document CHEMBL4732257, “The optimization and characterization of functionalized sulfonamides derived from sulfaphenazole against Mycobacterium tuberculosis with reduced CYP 2C9 inhibition” (Bioorg Med Chem Lett, 2021).

In this experiment the test system is Mycobacterium tuberculosis. Nature of the experiment: Antitubercular activity against isoniazid,streptomycin,rifampicin,ethambutol,para-aminosalicylate,prothionamide,capreomycin-resistant Mycobacterium tuberculosis 14862 assessed as bacterial growth inhibition. Format: functional.

≈ marks a conversion by molar mass, not a printed value.

Take `COc1ccc(-n2nccc2NS(=O)(=O)c2ccc(N)cc2)cc1`: the minimum inhibitory concentration (MIC) amounted to 10.6 µg/mL (≈ 30.8 µM). In the case of `Nc1ccc(S(=O)(=O)Nc2ccnn2-c2ccc(F)cc2)cc1`, the MIC came out at 10.9 µg/mL (≈ 32.7 µM).

`Cc1ccc(-n2nccc2NS(=O)(=O)c2ccc(N)cc2)cc1`: the MIC stood at 11.9 µg/mL (≈ 36.3 µM). As for `NNC(=O)c1ccncc1` [ISONIAZID], the figure is more than 10 µg/mL; as for `Nc1ccc(S(=O)(=O)Nc2ccnn2-c2ccccc2)cc1` [SULFAPHENAZOLE], 12.6 µg/mL (≈ 40 µM).

As usually defined, the MIC is the least concentration at which growth counts as inhibited.
